# “And” between values parts separate entries of the source, which are not always exact repeats. Equal values may be shown once.
# System: EA.hyb926 Endothelial Cells
# Test: Gene expression by Affymetrix gene chip profiling
# Type: cell-based, human
# Protocol: Control cells were treated with vehicle for the same times and RNA isolated as above. Transcript integrity was monitored using denaturing agarose gel electrophoresis in 1X MOPS. Biotinylated target RNA was prepared from 15 μg of total RNA using the Affymetrix protocol. Briefly, double-stranded cDNA was prepared from the RNA template using a modified oligo-dT primer containing a 5′ T7 RNA polymerase promoter sequence and the Superscript Choice System for cDNA Synthesis (Life Technologies Inc., Gaithersburg, Md.). Following phenol-chloroform extraction and ethanol precipitation, one-half of the cDNA reaction (0.5-1.0 μg) was used as template in an in vitro transcription reaction containing T7 RNA polymerase, a mixture of unlabeled ATP, CTP, GTP, and UTP, and biotin-11-CTP and biotin-16-UTP (BioArray High Yield Kit, ENZO, Inc.). The resulting biotinylated-cRNA “target” was purified on an affinity resin (RNeasy, Qiagen) and quantified using the convention that 1 O.D. Two-hundred sixty corresponds to 40 μg/mL of RNA. Typical yields ranged from 50 to 100 μg with transcript sizes between […] as determined by gel electrophoresis. Fifteen micrograms of biotinylated cRNA was randomly fragmented to an average size of 50 nucleotides by incubating at 94° C. for 35 minutes in 40 mM TRIS-acetate, pH 8.1, 100 mM potassium acetate, and 30 mM magnesium acetate. The fragmented cRNA was hybridized in a solution containing 100 mM MES, 1 M [Na^+], 20 mM EDTA, 0.01% TWEEN 20, 50 pM of Control Oligonucleotide B2 (Affymetrix, Inc.), 0.1 mg/mL of sonicated herring sperm DNA, and 0.5 mg/mL BSA for 16 hours at 45° C. on a Human 6800 Affymetrix GeneChip. Each hybridization included a mixture of four bacterial biotinylated-RNA transcripts (BioB, BioC, BioD, and cre) spiked at 1.5, 5, 25, and 100 pM, respectively. The hybridization reactions were processed and scanned according to the standard Affymetrix protocols.
# EA cells incubated with 10 ng/mL TNFα(with 5% FBS) for 6 hours (short-term) or 6 days (chronic exposure) were evaluated for identification of cytokine-responsive endothelial genes. […] In addition, ecNOS expression was reduced 4-fold from control, consistent with the western and northern blot data (FIGS. 6 and 7).
substance,measurement,setting,value
TNFα,ecNOS expression reduced from control,"6 day TNFα treatment, 10 ng/mL with 5% FBS",4 fold
same,Short- (6 hr Tx) Fold Increase: MCP-1,"TNFα 6 hr, accession HG4069",4.5 Fold
same,Short- (6 hr Tx) Fold Increase: Type IV collagenase,"TNFα 6 hr, accession J05070",4.7 Fold
same,Short- (6 hr Tx) Fold Increase: GM-CSF,"TNFα 6 hr, accession M13207",23.0 Fold
same,Short- (6 hr Tx) Fold Increase: Vitronectin,"TNFα 6 hr, accession M14648",4.3 Fold
same,Short- (6 hr Tx) Fold Increase: RANTES,"TNFα 6 hr, accession M21121",39.5 Fold
same,Short- (6 hr Tx) Fold Increase: Interleukin-8,"TNFα 6 hr, accession M28130",4.6 Fold
same,"Short- (6 hr Tx) Fold Increase: TNF-Inducible, CD44 adhesion receptor","TNFα 6 hr, accession M31165",2.7 Fold
same,Short- (6 hr Tx) Fold Increase: NFkB1 (p105),"TNFα 6 hr, accession M58603",4.4 Fold
same,Short- (6 hr Tx) Fold Increase: A20: TNFα-inducible transcription factor,"TNFα 6 hr, accession M59465",6.5 Fold
same,Short- (6 hr Tx) Fold Increase: VCAM-1,"TNFα 6 hr, accession M60335",32 Fold and 32.3 Fold
same,Short- (6 hr Tx) Fold Increase: ecNOS (NOS 3),"TNFα 6 hr, accession M93718, nc = no change from vehicle treated",did not affect
same,Short- (6 hr Tx) Fold Increase: HIF-1 α,"TNFα 6 hr, accession U22431",4.6 Fold
same,Short- (6 hr Tx) Fold Increase: VEGF C,"TNFα 6 hr, accession U43142",7.8 Fold
same,Short- (6 hr Tx) Fold Increase: Hiapl,"TNFα 6 hr, accession U45878",17.7 Fold
same,Short- (6 hr Tx) Fold Increase: Prointerleukin-1β,"TNFα 6 hr, accession X04500",42.2 Fold
same,Short- (6 hr Tx) Fold Increase: Manganese superoxide dismutase,"TNFα 6 hr, accession X07834",13.1 Fold
same,Short- (6 hr Tx) Fold Increase: Macrophage inflammatory protein2-β,"TNFα 6 hr, accession X53800",11.2 Fold
same,"Short- (6 hr Tx) Fold Increase: Integrin, αV subunit (vitronectin receptor)","TNFα 6 hr, accession X68742",4.3 Fold
same,Short- (6 hr Tx) Fold Increase: MT-MMP,"TNFα 6 hr, accession X83535",4.3 Fold
same,Chronic- (6 day Tx) Fold Increase: MCP-1,"TNFα 6 day, accession HG4069",8.7 Fold
same,Chronic- (6 day Tx) Fold Increase: Type IV collagenase,"TNFα 6 day, accession J05070",27.2 Fold
same,Chronic- (6 day Tx) Fold Increase: Von Willebrand factor,"TNFα 6 day, accession M10321",−8.3 Fold
same,Chronic- (6 day Tx) Fold Increase: GM-CSF,"TNFα 6 day, accession M13207",37.1 Fold
same,Chronic- (6 day Tx) Fold Increase: Vitronectin,"TNFα 6 day, accession M14648",6.8 Fold
same,Chronic- (6 day Tx) Fold Increase: RANTES,"TNFα 6 day, accession M21121",62.8 Fold
same,Chronic- (6 day Tx) Fold Increase: Interleukin-8,"TNFα 6 day, accession M28130",32.6 Fold
same,"Chronic- (6 day Tx) Fold Increase: TNF-Inducible, CD44 adhesion receptor","TNFα 6 day, accession M31165",37.1 Fold
same,Chronic- (6 day Tx) Fold Increase: NFkB1 (p105),"TNFα 6 day, accession M58603",2.9 Fold
same,Chronic- (6 day Tx) Fold Increase: A20: TNFα-inducible transcription factor,"TNFα 6 day, accession M59465",6.6 Fold
same,Chronic- (6 day Tx) Fold Increase: ecNOS (NOS 3),"TNFα 6 day, accession M93718",−3.9 Fold
same,Chronic- (6 day Tx) Fold Increase: TRAIL,"TNFα 6 day, accession U37518",4.8 Fold
same,Chronic- (6 day Tx) Fold Increase: VEGF C,"TNFα 6 day, accession U43142",27.1 Fold
same,Chronic- (6 day Tx) Fold Increase: Hiapl,"TNFα 6 day, accession U45878",6.9 Fold
same,Chronic- (6 day Tx) Fold Increase: Prointerleukin-1β,"TNFα 6 day, accession X04500",213.1 Fold
same,Chronic- (6 day Tx) Fold Increase: Manganese superoxide dismutase,"TNFα 6 day, accession X07834",63.4 Fold
same,Chronic- (6 day Tx) Fold Increase: Macrophage inflammatory protein2-β,"TNFα 6 day, accession X53800",40.6 Fold
same,"Chronic- (6 day Tx) Fold Increase: Integrin, αV subunit (vitronectin receptor)","TNFα 6 day, accession X68742",6.8 Fold
same,Chronic- (6 day Tx) Fold Increase: MCP-3,"TNFα 6 day, accession X72308",19.9 Fold
same,Chronic- (6 day Tx) Fold Increase: CD95 (Fas),"TNFα 6 day, accession X83492",4.3 Fold
same,Chronic- (6 day Tx) Fold Increase: MT-MMP,"TNFα 6 day, accession X83535",26.1 Fold
same,Chronic- (6 day Tx) Fold Increase: MCP-2,"TNFα 6 day, accession X99886",131.7 Fold
same,"increased expression of protective genes (superoxide dismutase, A-20, hiap-1, TRAIL, CD95)",TNFα exposure to EA cells,4.3-17.7 fold
same,increases in expression of proinflammatory (proatherogenic) genes,chronic TNFα exposure (6 days),6.8-75.8 fold

# — patent publication US20020146679A1, “Method for creating endothelial cell dysfunction in cell culture” (priority 2001, published 2002)
